The test relates to HCV 1b genotype. As to the kind of experiment: microbe, parasite or virus in culture. The format is cell-based. Particulars: Hepatitis C virus, HCV 1b genotype replicon. As for the experimental part: An HCV Replicon assay was utilized in the present disclosure, and was prepared, conducted and validated as described in commonly owned PCT/US2006/022197 and in O'Boyle et. al. Antimicrob Agents Chemother. 2005 April; 49(4):1346-53. Assay methods incorporating luciferase reporters have also been used as described (Apath.com).
HCV-neo replicon cells and replicon cells containing resistance substitutions in the NSSA region were used to test the currently described family of compounds. […] Ranges are as follows: A =0.5 pM to 10 pM; B=11 pM to 90 pM; C=91 pM to 160 pM; D=[…] to 5 nM.
For orientation: Replicon systems follow genome replication, usually without infectious particles.

The mark [1] stands for this setting: read-out: EC50 (Effective 50% inhibitory concentration).

Each structure is given as a SMILES string. pEC50: −log10 of the molar value. Read-outs that look alike come from different tables or passages of the source.

With `COC(=O)N[C@H](C(=O)N1[C@@H]2C[C@@H]2C[C@H]1c1ncc(-c2ccc(-c3ccc(-c4cnc([C@@H]5C[C@H]6C[C@H]6N5C(=O)[C@@H](NC(=O)OC)C5CCOCC5)[nH]4)c4c3CCC4)cc2)[nH]1)C1CCOCC1` [Example 4], the pEC50 (read-out: EC50 Range) was 10.05 to 10.96.
With `COC(=O)N[C@H](C(=O)N1[C@@H](C)CC[C@H]1c1ncc(-c2ccc(-c3ccc(-c4cnc([C@@H]5CC[C@H](C)N5C(=O)[C@@H](NC(=O)OC)C5CCOCC5)[nH]4)c4nc[nH]c34)cc2)[nH]1)C1CCOCC1` [Example 14], for the setting “read-out: EC50 Range”, the pEC50 was 8.30 to 9.79.
Regarding `COC(=O)N[C@H](C(=O)N1CCC[C@H]1c1ncc(-c2ccc(-c3ccc(-c4cnc([C@@H]5CCCN5C(=O)[C@@H](NC(=O)OC)C5CCOCC5)[nH]4)c4ccccc34)cc2)[nH]1)C1CCOCC1` [Example 2], the pEC50 (read-out: EC50 Range) was 10.05 to 10.96.
As to `COC(=O)N[C@H](C(=O)N1[C@@H]2C[C@@H]2C[C@H]1c1ncc(-c2ccc(-c3ccc(-c4cnc([C@@H]5C[C@H]6C[C@H]6N5C(=O)[C@@H](NC(=O)OC)C(C)C)[nH]4)c4nc[nH]c34)cc2)[nH]1)C(C)C` [Example 12], the pEC50 runs as follows: under setting [1], 10.39; (read-out: EC50 Range) 10.05 to 10.96.
With `COC(=O)N[C@H](C(=O)N1[C@@H]2C[C@@H]2C[C@H]1c1ncc(-c2ccc(-c3ccc(-c4cnc([C@@H]5C[C@H]6C[C@H]6N5C(=O)[C@@H](NC(=O)OC)C5CCOCC5)[nH]4)c4nc[nH]c34)cc2)[nH]1)C1CCOCC1` [Example 13], the pEC50 was 8.38 under setting [1] and 8.30 to 9.79 (read-out: EC50 Range).
For the molecule `COC(=O)NC(C(=O)N1[C@@H]2C[C@@H]2C[C@H]1c1ncc(-c2ccc(-c3cc(-c4cnc([C@@H]5C[C@H]6C[C@H]6N5C(=O)[C@@H](NC(=O)OC)C(C)C)[nH]4)cc4c3CCC4)cc2)[nH]1)C(C)C` (some centres unmarked) [Example 5], the pEC50 (read-out: EC50 Range) is 9.80 to 10.04.
`COC(=O)N[C@H](C(=O)N1[C@@H]2C[C@@H]2C[C@H]1c1nc(-c2ccc(-c3ccc(-c4ccc(-c5c[nH]c([C@@H]6C[C@H]7C[C@H]7N6C(=O)[C@@H](NC(=O)OC)C(C)C)n5)cc4)c4[nH]ccc34)cc2)c[nH]1)C(C)C` [Example 18]: the pEC50 under setting [1] was 11.56.
As for `COC(=O)N[C@H](C(=O)N1[C@@H](C)CC[C@H]1c1ncc(-c2ccc(-c3ccc(-c4coc([C@@H]5CC[C@H](C)N5C(=O)[C@@H](NC(=O)OC)C5CCOCC5)n4)c4c3CCC4)cc2)[nH]1)C1CCOCC1` [Example 7], the pEC50 is 10.03 under setting [1] and 9.80 to 10.04 (read-out: EC50 Range).

The record behind these values is US20120195857A1, “Hepatitis C Virus Inhibitors” (Bristol-Myers Squibb Company, priority 2010, published 2012).
